Data from patent US20130289014A1, “Combination therapy in treatment of oncological and fibrotic diseases” (BOEHRINGER INGELHEIM INTERNATIONAL GMBH, priority 2010, published 2013).

How the values were obtained:
[1] = test system: Calu-6 xenografts (human NSCLC tumor cell line); experiment: Calu-6 NSCLC subcutaneous xenograft, single agents and combination; type: in vivo, mice; conditions: Calu-6, d40; large tumors, ca. 350 mm^3 at start of treatment
Method: In order to analyse the anti-tumor effects of combining the inhibition of tumor angiogenesis by interfering with the VEGFR signalling cascade with the antitumor activity of inhibiting Aurora kinase B, the following in vivo experiment is performed. Nude mice carrying established subcutaneous Calu-6 xenografts (human NSCLC tumor cell line) are randomized and treated with either the Aurora B kinase inhibitor of this invention Compound X or BIBF 1120 alone or with the combination of both drugs. After termination of treatment the tumors on the control treated mice (black line with circles in FIG. 1) are in average about 1100 mm^3 in volume.
FIG. 1: Calu-6 NSCLC model, combination BIBF 1120+Compound X, schedule (cf. Drawings; control group: line with circles; BIBF 1120 treated group: line with rhombs; Compound X (AKI) treated group: line with triangles; Combo BIBF 1120+Compound X (AKI) treated group: line with squares).

MV-4; 11 = experiment: AML cancer model MV-4;11; type: in vivo; conditions: MV-4;11 AML model
[2] = test system: BxPC-3 pancreas adenocarcinoma; experiment: BxPC-3 pancreas adenocarcinoma subcutaneous xenograft; type: in vivo, mice; conditions: for T/C: BxPC-3
Method: (§1) BomTac:NMRI-Foxn1^nu mice were grafted subcutaneously with NCI-H460 non-small cell lung carcinoma (mutant KRAS, wild-type p53), HCT 116 colon carcinoma (mutant KRAS, wild-type p53) or BxPC-3 pancreas adenocarcinoma cells (wild-type KRAS, mutant p53). Treatment was initiated when the tumors had reached a volume of ˜50 mm^3. BI 811283 was injected intravenously once or twice weekly as a single bolus or b.i.d. Alternatively, the compound was administered once-weekly by a continuous 24 h infusion via subcutaneously implanted osmotic mini-pumps. Multiple dose levels and dosing schedules were evaluated.

NCI-H460 cells [3] = experiment: Apoptosis: cleaved PARP Western blot and nuclear fragmentation of DAPI-stained cells; type: cell-based, human; conditions: NCI-H460, after 72 h and 96 h of treatment
Method: (§2) Compound X was profiled in enzymatic kinase assays as well as in proliferation assays on various human cancer cell lines. Cell cycle status was assessed by DNA content analysis (Cellomics ArrayScan, FACScalibur). Histone H3 phosphorylation was determined by immunofluorescence (Cellomics ArrayScan). Apoptosis was detected by Western blotting for cleaved PARP and microscopic enumeration of DAPI-stained cells showing nuclear fragmentation. Senescent cells were identified by staining for SA-β-Gal activity.

[4] = test system: histone H3 phosphorylation in NCI-H460 cells; experiment: Histone H3 phosphorylation by immunofluorescence (Cellomics ArrayScan); type: cell-based, human
Method: as §2

NCI-H460 cells [5] = experiment: Cell cycle status by DNA content analysis (polyploidy); type: cell-based, human; conditions: NCI-H460, within 48 h of treatment; increased from <5%
Method: as §2

human cancer cell lines = experiment: Proliferation assays on human cancer cell lines; type: cell-based; conditions: >20 human cancer cell lines; read-out: EC50 for inhibition of proliferation
Method: as §2

[6] = test system: 46 additional kinases representative of the human kinome; experiment: Panel of 46 additional kinases; type: biochemical; conditions: Compound at 1000 nM
Method: as §2

THP-1 = experiment: AML cancer model THP-1; type: in vivo; conditions: THP-1 AML model
HCT 116 colon carcinoma = HCT 116 colon carcinoma subcutaneous xenograft; type: in vivo, mice; conditions: for T/C: HCT 116
Method: as §1

Aurora C kinase = target: T1, Aurora C kinase (Homo sapiens, UniProt Q9UQB9); experiment: Enzymatic kinase assay, Aurora C; type: biochemical
T1 sequence (Q9UQB9 1-309): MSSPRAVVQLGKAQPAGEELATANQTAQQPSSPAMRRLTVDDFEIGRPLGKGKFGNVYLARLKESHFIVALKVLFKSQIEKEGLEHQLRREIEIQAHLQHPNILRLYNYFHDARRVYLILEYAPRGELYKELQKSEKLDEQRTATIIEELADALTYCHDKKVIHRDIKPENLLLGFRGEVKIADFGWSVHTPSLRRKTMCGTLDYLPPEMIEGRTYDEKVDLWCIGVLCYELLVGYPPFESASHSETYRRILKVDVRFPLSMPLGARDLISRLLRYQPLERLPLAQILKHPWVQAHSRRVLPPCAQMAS
Method: as §2

[7] = test system: NCI-H460 non-small cell lung carcinoma; experiment: NCI-H460 non-small cell lung carcinoma subcutaneous xenograft; type: in vivo, mice; conditions: for T/C: NCI-H460
Method: as §1

human Aurora B kinase = human Aurora B kinase (Homo sapiens, UniProt Q96GD4); experiment: Enzymatic kinase assay, Aurora B; type: biochemical
Method: as §2

Aurora A kinase = target: T2, Aurora A kinase (Homo sapiens, UniProt O14965); experiment: Enzymatic kinase assay, Aurora A; type: biochemical
T2 sequence (O14965 1-403): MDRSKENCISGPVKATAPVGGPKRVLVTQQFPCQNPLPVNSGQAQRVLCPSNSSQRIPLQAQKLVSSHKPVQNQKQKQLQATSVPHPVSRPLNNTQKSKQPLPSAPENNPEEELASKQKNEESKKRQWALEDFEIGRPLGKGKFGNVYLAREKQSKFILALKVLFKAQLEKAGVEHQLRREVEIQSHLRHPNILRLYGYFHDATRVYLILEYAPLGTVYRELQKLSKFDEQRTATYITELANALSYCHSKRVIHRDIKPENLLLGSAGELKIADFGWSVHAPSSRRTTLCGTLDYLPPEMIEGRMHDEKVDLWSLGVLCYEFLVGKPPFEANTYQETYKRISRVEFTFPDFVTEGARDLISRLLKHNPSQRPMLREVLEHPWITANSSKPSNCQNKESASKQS
Method: as §2

NCI-H460 cells [8] = experiment: Senescence by SA-β-Gal staining; type: cell-based, human; conditions: NCI-H460, within 96 h; from <3%
Method: as §2

[9] = 15 BID mg/kg, weekly dose 60 mg/kg, (qdx2)x6, i.v.

Sequence of human Aurora B kinase (Q96GD4 whole entry): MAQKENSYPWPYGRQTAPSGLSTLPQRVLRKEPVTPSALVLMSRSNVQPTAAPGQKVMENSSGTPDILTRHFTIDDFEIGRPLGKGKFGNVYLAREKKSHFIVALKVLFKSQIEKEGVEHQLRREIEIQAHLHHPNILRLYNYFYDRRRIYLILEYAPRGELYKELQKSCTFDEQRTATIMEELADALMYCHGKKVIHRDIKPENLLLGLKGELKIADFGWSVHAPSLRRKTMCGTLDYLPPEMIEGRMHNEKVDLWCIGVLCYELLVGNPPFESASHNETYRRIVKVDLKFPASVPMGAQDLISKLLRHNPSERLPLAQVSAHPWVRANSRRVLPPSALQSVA

With COC(=O)c1ccc2c(c1)NC(=O)/C2=C(\Nc1ccc(N(C)C(=O)CN2CCN(C)CC2)cc1)c1ccccc1 [BIBF 1120, 3-Z-[1-(4-(N-((4-methyl-piperazin-1-yl)-methylcarbonyl)-N-methyl-amino)-anilino)-1-phenyl-methylene]-6-methoxycarbonyl-2-indolinone] as the compound, how does the “median T/C value” [1] read?
The value was 50%.

How did the T/C value (MV-4; 11) turn out when CC(C)NC(=O)[C@H]1CCC[C@H]1Nc1nc(Nc2ccc(C(=O)N(C)C3CCN(C)CC3)cc2)ncc1C(F)(F)F [Compound X] was run?
The T/C value was 5%.

And the T/C ([2]; 20 mg/kg, weekly dose 20 mg/kg, (q7d)x4, 24 h cont. inf.)?
Its T/C is 6%.

And the T/C [2, 9]?
The T/C was 17%.

What about the “effect on tumor growth” value ([2]; pancreas carcinoma model, multiple cycles, total weekly doses of 20 to 75 mg/kg) of the same compound?
Its value is “dose-dependent inhibition of tumor growth or tumor regression”.

And the “cleaved poly (ADP-ribose) polymerase” value (NCI-H460 cells [3])?
The value was “An increase of cleaved poly (ADP-ribose) polymerase”.

What about the “fraction of cells with nuclear fragmentation” value (NCI-H460 cells [3]; from <1%) of the same compound?
Its value is 7%.

And the “time to inhibition of histone H3 phosphorylation” value [4]?
The value was under 1 h.

What about the “median T/C value” [1] of the same compound?
Its value is 45%.

And the “fraction of polyploid cells” value (NCI-H460 cells [5])?
Its value is over 80%.

What about the EC50 (human cancer cell lines) of the same compound?
Its EC50 is 2 to 14 nM.

And the “kinases inhibited by more than 50%” value [6]?
Its value is 7/46.

What about the T/C value (THP-1) of the same compound?
Its T/C value is 7%.

What about the “effect on large tumors” value (HCT 116 colon carcinoma; HCT 116, large tumors (350 mm^3)) of the same compound?
The value was “regression of large tumors (350 mm^3) was induced”.

And the T/C (HCT 116 colon carcinoma; 20 mg/kg, weekly dose 20 mg/kg, (q7d)x5, 24 h cont. inf.)?
The T/C was 2%.

What about the T/C (HCT 116 colon carcinoma; 30 mg/kg, weekly dose 60 mg/kg, (qdx2)x6, i.v.) of the same compound?
The T/C was 25%.

And the T/C (HCT 116 colon carcinoma; [9])?
Its T/C is 4%.

What about the T/C (HCT 116 colon carcinoma; 37.5 BID mg/kg, weekly dose 75 mg/kg, (q7d)x6, i.v.) of the same compound?
The T/C was 8%.

And the “histological examination of tumors” value (HCT 116 colon carcinoma; HCT 116 tumors)?
The value was “accumulation of enlarged, multinucleated cells”.

And the “phosphorylation of histone H3 in tumors (biomarker analysis)” value (HCT 116 colon carcinoma; HCT 116 tumors, therapeutic doses)?
Its value is “inhibited phosphorylation of histone H3”.

What about the “effect on tumor growth” value (HCT 116 colon carcinoma; colon carcinoma model, multiple cycles, total weekly doses of 20 to 75 mg/kg) of the same compound?
The value was “dose-dependent inhibition of tumor growth or tumor regression”.

What about the IC50 (Aurora C kinase) of the same compound?
The IC50 was 17 nM.

What about the T/C ([7]; 20 mg/kg, weekly dose 20 mg/kg, (q7d)x3, 24 h cont. inf.) of the same compound?
Its T/C is 8%.

What about the T/C ([7]; 15 BID mg/kg, weekly dose 60 mg/kg, (qdx2)x3, i.v.) of the same compound?
The T/C was 27%.

And the “effect on tumor growth” value ([7]; non-small cell lung cancer model, multiple cycles, total weekly doses of 20 to 75 mg/kg)?
Its value is “dose-dependent inhibition of tumor growth or tumor regression”.

What about the IC50 (human Aurora B kinase) of the same compound?
Its IC50 is 9 nM.

And the IC50 (Aurora A kinase)?
The IC50 was 70 nM.

What about the “senescent cells, fraction of the population” value (NCI-H460 cells [8]) of the same compound?
Its value is 25%.
